In patent publication US6403633B2, “Heteroaryl amidines, methylamidines and guanidines, and use thereof as protease inhibitors” (3-Dimensional Pharmaceuticals, Inc., priority 1998, dated 2002):
Structures can show the parent of a compound that is named as a salt. Where two headings read alike, the source gives them in different places.

Key:
human kidney urokinase = biological target: T1, human kidney urokinase (Homo sapiens, UniProt P00749); assay: In vitro inhibition of purified enzymes, Ki determination: urokinase (uPA); assay type: biochemical
T1 construct: purchased Sigma U5004; host or cells: human kidney cells
Text: (§1) Reagents: All buffer salts were obtained from Sigma Chemical Company (St. Louis, Mo.), and were of the highest purity available. The enzyme substrates, N-benzoyl-Phe-Val-Arg-p-nitroanilide (Sigma B7632), N-benzoyl-Ile-Glu-Gly-Arg-p-nitroanilide hydrochloride (Sigma B2291), N-p-tosyl-Gly-Pro-Lys-p-nitroanilide (Sigma T6140), N-succinyl-Ala-Ala-Pro-Phe-p-nitroanilide (Sigma S7388) and N-CBZ-Val-Gly-Arg-p-nitroanilide (Sigma C7271) were obtained from Sigma.
Human α-thrombin, human factor Xa and human plasmin were obtained from Enzyme Research Laboratories (South Bend, Ind.). Bovine α-chymotrypsin (Sigma C4129), bovine trypsin (Sigma T8642) and human kidney cell urokinase (Sigma U5004) were obtained from Sigma. Human leukocyte elastase was obtained from Elastin Products (Pacific, Mo.). Ki Determinations: All assays are based on the ability of the test compound to inhibit the enzyme catalyzed hydrolysis of a peptide p-nitroanilide substrate. […] The final concentrations for each of the substrates is listed below. In general, substrate concentrations are lower than the experimentally determined value for Km. Test compounds are prepared as a 1.0 mg/ml solution in DMSO. Dilutions are prepared in DMSO yielding 8 final concentrations encompassing a 200 fold concentration range. Enzyme solutions are prepared at the concentrations listed below in assay buffer.
Data corresponding to less than 10% of the total substrate hydrolysis were used in the calculations. The ratio of the velocity (rate of change in absorbance as a function of time) for a sample containing no test compound is divided by the velocity of a sample containing test compound, and is plotted as a function of test compound concentration. The data are fit to a linear regression, and the value of the slope of the line calculated. The inverse of the slope is the experimentally determined Ki value. Thrombin: Thrombin activity was assessed as the ability to hydrolyze the substrate N-succinyl-Ala-Ala-Pro-Arg-p-nitroanilide. […] Final DMSO concentration was 4.3%. […] Factor X [FXa]: FXa activity was assessed as the ability to hydrolyze the substrate N-benzoyl-Ile-Glu-Gly-Arg-p-nitroanilide hydrochloride. […] Final DMSO concentration was 4.3%. Purified activated human Factor X was diluted into assay buffer to a concentration of 300 nM. […] Plasmin: Plasmin activity was assessed as the ability to hydrolyze the N-p-Tosyl-Gly-Pro-Lys-p-nitroanilide. […] Final DMSO concentration was 4.3%. […] Chymotrypsin: Chymotrypsin activity was assessed as the ability to hydrolyze N-succinyl-Ala-Ala-Pro-Phe-p-nitroanilide. […] Final DMSO concentration was 4.3%. […] Trypsin: Trypsin activity was assessed as the ability to hydrolyze N-benzoyl-Phe-Val-Arg-p-nitroanilide. […] Final DMSO concentration was 4.3%. […] Elastase: Elastase activity was assessed as the ability to hydrolyze N-succinyl-Ala-Ala-Pro-Val-p-nitroanilide. […] Final DMSO concentration was 4.3%. […] Urokinase: Urokinase activity was assessed as the ability to hydrolyze N-CBZ-Val-Gly-Arg-p-nitroanilide. […] Final DMSO concentration was 4.3%. […] Final reagent concentrations were: [Urokinase]=40 nM, and N-CBZ-Val-Gly-Arg-p-nitroanilide]=[…].

bovine trypsin = biological target: T2, bovine trypsin (Bos taurus, UniProt P00760); assay: In vitro inhibition of purified enzymes, Ki determination: trypsin; assay type: biochemical; conditions: substrate N-benzoyl-Phe-Val-Arg-p-nitroanilide 13 μM, [Trypsin]=4 nM, pH 7.5, 37° C.
T2 construct: purchased Sigma T8642
T2 sequence (P00760 24-246): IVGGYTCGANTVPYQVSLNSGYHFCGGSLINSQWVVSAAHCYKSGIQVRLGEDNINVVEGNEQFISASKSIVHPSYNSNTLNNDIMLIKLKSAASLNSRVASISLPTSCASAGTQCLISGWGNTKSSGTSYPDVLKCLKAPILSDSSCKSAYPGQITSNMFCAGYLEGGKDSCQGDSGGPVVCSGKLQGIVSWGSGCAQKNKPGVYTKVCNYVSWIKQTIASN
Text: as §1, with “Sigma. N-Succinyl-Ala-Ala-Pro-Arg-p-nitroanilide (BACHEM L-1720) and N-succinyl-Ala-Ala-Pro-Val-p-nitroanilide (BACHEM L-1770) were obtained from BACHEM (King of Prussia, Pa).” for “Sigma.”
Human α-thrombin, human factor Xa and human plasmin were obtained from Enzyme Research Laboratories (South Bend, Ind.). […] In general, substrate concentrations are lower than the experimentally determined value for Km. […]
In a typical Ki determination, into each well of a 96 well plate is pipetted 280 μL of substrate solution, 10 μL of test compound solution, and the plate allowed to thermally equilibrate at 37° C. in a Molecular Devices plate reader for >15 minutes. Reactions were initiated by the addition of a 10 μL aliquot of enzyme and the absorbance increase at 405 nm is recorded for 15 minutes. […] The data are fit to a linear regression, and the value of the slope of the line calculated. The inverse of the slope is the experimentally determined Ki value. […]

[1] = uPA, substrate N-CBZ-Val-Gly-Arg-p-nitroanilide, [Urokinase]=40 nM, pH 7.5, 37° C., one range stated for the listed compounds, read-out: Ki values for uPA

Row | Ki (human kidney urokinase; [1]) | SMILES | also measured
1 | 16 to 3500 nM | CSc1sc(C(=N)N)cc1NC(=O)c1ccc(Oc2cc(Cl)cc(Cl)c2)o1 [Example 233] | –
2 | 16 to 3500 nM | CSc1sc(C(=N)N)cc1NC(=O)/C=C/c1ccccc1 [Example 227, 4-((2E)-3-Phenylprop-2-enoylamino)-5-methylthiothiophene-2-carboxamidine] | –
3 | 16 to 3500 nM | CSc1sc(C(=N)N)cc1Nc1nc(-c2ccccc2)cs1 [Example 204, 5-Methylthio-4-[(4-phenyl(1,3-thiazol-2-yl))amino]thiophene-2-carboxamidine] | –
4 | 16 to 3500 nM | CSc1sc(C(=N)N)cc1Nc1ccc2ccccc2c1 [Example 208, 5-Methylthio-4-(2-naphthylamino)thiophene-2-carboxamidine] | –
5 | 16 to 3500 nM | CSc1sc(C(=N)N)cc1-c1nc(-c2cc(C(C)(C)C)nn2Cc2ccccc2)cs1 [Example 143, 4-{4-[3-(tert-Butyl)-1-benzylpyrazol-5-yl](1,3-thiazol-2-yl)}-5-methylthiothiophene-2-carboxamidine] | –
6 | – | COc1cccc(-c2csc(-c3cc(C(=N)N)sc3SC)n2)c1 [Example 8, 4-[4-(3-Methoxyphenyl)(1,3-thiazol-2-yl)]-5-methylthiothiophene-2-carboxamidine hydrochloride] | Ki (bovine trypsin): 858 nM
7 | 16 to 3500 nM | C[S+]([O-])c1sc(C(=N)N)cc1-c1nc(-c2ccc(Cl)cc2)cs1 (stereo not shown) [Example 138, 4-[4-(4-Chlorophenyl)(1,3-thiazol-2-yl)]-5-(methylsulfinyl)thiophene-2-carboxamidine] | –
8 | 16 to 3500 nM | CSc1sc(C(=N)N)cc1C(=N)NCc1ccccc1 [Example 89, 4-{Imino[benzylamino]methyl}-5-methylthiothiophene-2-carboxamidine hydrochloride] | –
9 | 16 to 3500 nM | COc1ccc(OC)c(-c2csc(-c3cc(C(=N)N)sc3SC)n2)c1 [Example 28, 4-[4-(2,5-Dimethoxyphenyl)(1,3-thiazol-2-yl)]-5-methylthiothiophene-2-carboxamidine hydrochloride] | –
10 | 16 to 3500 nM | CSc1sc(C(=N)N)cc1-c1ncc(-c2ccccc2)o1 [Example 79, 5-Methylthio-4-(5-phenyl(1,3-oxazol-2-yl))thiophene-2-carboxamidine hydrochloride] | –
11 | 16 to 3500 nM | CSc1sc(C(=N)N)cc1-c1nc(-c2cccc(OCC(=O)O)c2)cs1 [Example 40, 2-{3-[2-(5-Amidino-2-methylthio-3-thienyl)-1,3-thiazol-4-yl]phenoxy}acetic acid] | –
12 | 16 to 3500 nM | CSc1sc(C(=N)N)cc1NCc1ccccc1 [Example 220, 5-Methylthio-4-[benzylamino]thiophene-2-carboxamidine] | –
13 | – | CSc1sc(C(=N)N)cc1Oc1ccccc1 [Example 288, 5-Methylthio-4-phenoxythiophene-2-carboxamidine trifluoroacetate] | Ki (human kidney urokinase): 16 to 3500 nM
14 | 16 to 3500 nM | CSc1sc(C(=N)N)cc1N(S(=O)(=O)c1ccc(Cl)cc1)S(=O)(=O)c1ccc(Cl)cc1 [Example 281, 4-{Bis[(4-chlorophenyl)sulfonyl]amino}-5-methylthiothiophene-2-carboxamidine] | –
15 | 16 to 3500 nM | CSc1sc(C(=N)N)cc1-c1nc(-c2ccccc2)c(-c2ccccc2)s1 [Example 131, 4-(4,5-Diphenyl(1,3-thiazol-2-yl))-5-methylthiothiophene-2-carboxamidine] | –
16 | 16 to 3500 nM | CSc1sc(C(=N)N)cc1Nc1ncccn1 [Example 200, 5-Methylthio-4-(pyrimidin-2-ylamino)thiophene-2-carboxamidine hydrochloride] | –
17 | 16 to 3500 nM | CSc1sc(C(=N)N)cc1NC(=O)c1ccc2ccccc2n1 [Example 235, 5-Methylthio-4-(2-quinolylcarbonylamino)thiophene-2-carboxamidine] | –
18 | 16 to 3500 nM | CSc1sc(C(=N)N)cc1NC(=O)COc1ccccc1 [Example 239, 5-Methylthio-4-(2-phenoxyacetylamino)thiophene-2-carboxamidine] | –
19 | 16 to 3500 nM | CSc1sc(C(=N)N)cc1-c1nc(-c2ccccc2)co1 [Example 84, 5-Methylthio-4-(4-phenyl(1,3-oxazol-2-yl))thiophene-2-carboxamidine hydrochloride] | –
20 | 16 to 3500 nM | COc1sc(C(=N)N)cc1-c1nc(-c2ccccc2)cs1 [Example 139, 5-Methoxy-4-(4-phenyl(1,3-thiazol-2-yl))thiophene-2-carboxamidine] | –
21 | – | CSc1sc(C(=N)N)cc1-c1nc(-c2cccc(OCC(=O)N3CCOCC3)c2)cs1 [Example 52, 5-Methylthio-4-{4-[3-(2-morpholin-4-yl-2-oxoethox)phenyl](1,3-thiazol-2-yl)}thiophene-2-carboxamidine trifluoroacetate] | Ki (bovine trypsin): 474 nM
22 | 16 to 3500 nM | CSc1sc(C(=N)N)cc1Nc1cccc([N+](=O)[O-])c1 [Example 213, 5-Methylthio-4-[(3-nitrophenyl)amino]thiophene-2-carboxamidine] | –
